Experimental data from patent US5632988A, “Polypeptide inhibitors of gamma interferon” (Schering Corporation, priority 1992, dated 1997).
Ends that are not written are not given here.

B1: Recombinant human gamma interferon D: recombinant human gamma interferon D prepared from transformed E. coli, stimulus in antiviral and HLA-DR assays (protein, UniProt P01579 24-161, looked up)
Interferon gamma: QDPYVKEAENLKKYFNAGHSDVADNGTLFLGILKNWKEESDRKIMQSQIVSFYFKLFKNFKDDQSIQKSVETIKEDMNVKFFNSNKKKRDDFEKLTNYSVTDLNVQRKAIHELIQVMAELSPAAKTGKRKRSQMLFRG
modifications: E. coli recombinant
notes: recombinant human gamma interferon D prepared from transformed E. coli, stimulus in antiviral and HLA-DR assays

Experiments:
[1] = target: T1, gamma interferon receptors on Daudi cells (Homo sapiens, UniProt P15260); assay: Inhibition of the binding of 125I-recombinant human gamma interferon to Daudi cells (radioligand-receptor assay); conditions: for inhibition of the binding of the labeled interferon (in words; type of inhibition): FIGS. 1-4; for Ki: specific binding of 125I-recombinant human gamma interferon to Daudi cells, 2 hours at 4° C., Cheng et al. method
T1 construct: host or cells: Daudi cells (human B lymphoblast, Burkitt lymphoma)
T1 sequence (P15260 18-489): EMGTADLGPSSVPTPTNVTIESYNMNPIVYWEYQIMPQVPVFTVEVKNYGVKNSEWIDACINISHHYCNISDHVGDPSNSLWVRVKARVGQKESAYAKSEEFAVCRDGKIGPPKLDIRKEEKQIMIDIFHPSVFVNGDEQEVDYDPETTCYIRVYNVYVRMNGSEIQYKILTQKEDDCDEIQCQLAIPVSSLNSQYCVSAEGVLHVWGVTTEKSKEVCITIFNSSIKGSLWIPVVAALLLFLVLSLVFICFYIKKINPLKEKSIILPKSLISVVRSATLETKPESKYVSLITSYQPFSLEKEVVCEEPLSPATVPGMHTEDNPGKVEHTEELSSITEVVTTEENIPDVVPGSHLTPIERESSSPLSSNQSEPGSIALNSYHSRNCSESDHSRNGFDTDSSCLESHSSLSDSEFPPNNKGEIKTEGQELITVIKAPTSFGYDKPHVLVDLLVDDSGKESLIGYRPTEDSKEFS
Procedure: The receptor assay employed a standard mixture of 6×10^5 Daudi cells in 1 ml of binding medium (RPMI 1640 medium, 10% fetal bovine serum, 0.02% sodium azide) containing 200,000 cpm of the labeled interferon. Controls additionally contained 1 μg of unlabeled interferon to determine nonspecific binding. Assays were carried out by adding 0.1 ml aliquots of binding medium with or without varying amounts of a potentially inhibitory polypeptide or protein to the standard mixtures, and incubating the combined mixtures for 2 hours at 4° C.
Following the incubation, the cells were pelleted by centrifugation at 13,000× g for 30 seconds at 4° C, and the supernatants were discarded. The cells were resuspended in 0.2 ml of fresh binding medium without labeled interferon at 4° C., after which the cells were centrifuged at 13,000× g for 2 minutes through a layer of dibutyl phthalate and dioctyl phthalate [0.2 ml of a 1:1 (vol/vol) mixture] to remove residual labeled interferon that was not specifically bound. Inhibition constants (Ki) were calculated according to the method of Cheng et al. [Biochem. Pharmacol. 22:3099 (1973)], in which [formula] where [L] is the ligand concentration and IC50 is the concentration of inhibitor required to decrease binding by 50%.

[2] = test system: antiviral effects of recombinant human gamma interferon D; assay: Inhibition of antiviral effects of recombinant human gamma interferon D on human diploid foreskin cells challenged with encephalomyocarditis virus (CPE scoring); assay type: cell-based
Procedure: Control Medium A, various dilutions in Medium A of recombinant human gamma Interferon D in the presence of a fixed concentration of polypeptide No. I, or various dilutions of Medium A of polypeptide No. III in the presence of a fixed concentration of the interferon were pipetted in 0.1 ml total volumes into the wells of 96-well flat bottom microtiter plates.
Aliquots of a suspension of human diploid foreskin cells (0.1 ml, 3.5×10^5 cells/ml) in Medium A were pipetted into the wells of the microtiter plates, and the plates were incubated for 4 hours in a 37° C., 5% CO2 incubator. […]
A 0.025-0.05 aliquot of a solution of crystal violet stain (Sigma Chemical Co., St. Louis, Mo.; 0.485% in an aqueous solution containing 3.2% formaldehyde and 32.3% 95% ethanol) was added to each well, and the plates were allowed to stand for 30 minutes for color development. The stain solution was removed and the wells were washed at least three times with distilled water, after which the plates were scored for CPE with the aid of a fluorescent light viewer.
CPE was graded semi-quantitatively on a scale of 0 to 4, with grade O CPE corresponding to a complete absence of cell lysis as measured by cell staining with crystal violet and grade 4 CPE corresponding to total cell lysis and lack of staining.

[3] = test system: murine encephalomyocarditis virus; assay: Antiviral activity assay, human diploid foreskin cells infected with murine encephalomyocarditis virus (Rubinstein et al.); assay type: cell-based
Excerpt: It also is a potent inducer of the maturational differentiation of pro-monocytes to premacrophages. […] 37:755 (1981)]. […] 132:240 (1984)].

Molecule	inhibition of the binding of the labeled interferon (in words; type of inhibition) ([1]; Daudi cells)	Ki [1] [nM]	other results
AKKLSKDRMKKYMARRKWQKTGHAV [Polypeptide I]	–	–	Kd of labeled interferon in the presence of polypeptide (Scatchard analysis) ([1]; 5 μM polypeptide, Daudi cells): marked increase
poly(L-lysine)	strong competitive inhibitors	11000	–
poly(D-lysine)	strong competitive inhibitors	190	–
poly(L-glutamic acid)	–	290	–
protamine sulfate	–	1100	–
B1	–	–	CPE grade ([2]; interferon alone, 30 pM, scale 0 to 4): 2; cell protection / CPE ([2]; interferon alone, 1,200 pM): complete cell protection; antiviral specific activity [3]: about 4×10^6 units/mg
